From patent US10710978B2, “STK4 inhibitors for treatment of hematologic malignancies” (Dana-Farber Cancer Institute, Inc., priority 2015, dated 2020)
Read-outs that look alike come from different tables or passages of the source.

Assays:
Experiment in all cases: KiNativ assay
Format in all cases: binding
MAP3K5 = MAP3K5 (Homo sapiens (Human), UniProt Q99683); conditions: H929 live cell
Method: (§1) Biochemical IC50s of the compounds of the present disclosure against various kinases were measured in a KiNativ assay. Compounds were screened in duplicate at 10 μM in H929 live cell. IC50 was measured via Mass spectroscopy (MS).

IRAK4 = IRAK4 (Homo sapiens (Human), UniProt Q9NWZ3); conditions: H929 live cell
Method: as §1

[1] = tested on: ZC1/HGK, ZC2/TNIK, ZC3/MINK; conditions: H929 live cell; for % inhibition: 10 μM, range class
Method: as §1

ILK = ILK (Homo sapiens (Human), UniProt Q13418); conditions: H929 live cell
Method: as §1

STLK5 = STLK5 (Homo sapiens (Human), UniProt Q7RTN6); conditions: H929 live cell
Method: as §1

CaMK1d = CaMK1d (Homo sapiens (Human), UniProt Q8IU85); conditions: H929 live cell
Method: as §1

JAK1 domain1 = JAK1 domain1 (Homo sapiens (Human), UniProt P23458); conditions: H929 live cell
Method: as §1

BRAF = BRAF (Homo sapiens (Human), UniProt P15056); conditions: H929 live cell
Method: as §1

NEK1 = NEK1 (Homo sapiens (Human), UniProt Q96PY6); conditions: H929 live cell
Method: as §1

IKKb = IKKb (Homo sapiens (Human), UniProt O14920); conditions: H929 live cell
Method: as §1

KHS1 = KHS1 (Homo sapiens (Human), UniProt Q9Y4K4); conditions: H929 live cell
Method: as §1

CDK2 = CDK2 (Homo sapiens (Human), UniProt P24941); conditions: H929 live cell
Method: as §1

PKD2 = PKD2 (Homo sapiens (Human), UniProt Q9BZL6); conditions: H929 live cell
Method: as §1

MAP3K2, MAP3K3 = conditions: H929 live cell; for % inhibition: 10 μM, range class
Method: as §1

MAP3K2 = MAP3K2 (Homo sapiens (Human), UniProt Q9Y2U5); conditions: H929 live cell
Method: as §1

CHK2 = CHK2 (Homo sapiens (Human), UniProt O96017); conditions: H929 live cell
Method: as §1

TAO2 = TAO2 (Homo sapiens (Human), UniProt Q9UL54); conditions: H929 live cell
Method: as §1

MARK1, MARK2 = conditions: H929 live cell; for % inhibition: 10 μM, range class
Method: as §1

ABL, ARG = conditions: H929 live cell; for % inhibition: 10 μM, range class
Method: as §1

MAPKAPK2, MAPKAPK3 = conditions: H929 live cell; for % inhibition: 10 μM, range class
Method: as §1

[2] = tested on: CaMK2a, CaMK2b, CaMK2d, CaMK2g; conditions: H929 live cell; for % inhibition: 10 μM, range class
Method: as §1

KSR1, KSR2 = conditions: H929 live cell; for % inhibition: 10 μM, range class
Method: as §1

LKB1 = LKB1 (Homo sapiens (Human), UniProt Q15831); conditions: H929 live cell
Method: as §1

JAK1 domain2 = JAK1 domain2 (Homo sapiens (Human), UniProt P23458); conditions: H929 live cell
Method: as §1

RSK2 domain2 = RSK2 domain2 (Homo sapiens (Human), UniProt P51812); conditions: H929 live cell
Method: as §1

PIP5K3 = PIP5K3 (Homo sapiens (Human), UniProt Q9Y2I7); conditions: H929 live cell
Method: as §1

NEK4 = NEK4 (Homo sapiens (Human), UniProt P51957); conditions: H929 live cell
Method: as §1

ULK1 = ULK1 (Homo sapiens (Human), UniProt O75385); conditions: H929 live cell
Method: as §1

IRE1 = IRE1 (Homo sapiens (Human), UniProt O75460); conditions: H929 live cell
Method: as §1

CaMK2g = CaMK2g (Homo sapiens (Human), UniProt Q13555); conditions: H929 live cell
Method: as §1

SLK = SLK (Homo sapiens (Human), UniProt Q9H2G2); conditions: H929 live cell
Method: as §1

PKN1 = PKN1 (Homo sapiens (Human), UniProt Q16512); conditions: H929 live cell
Method: as §1

PI4KB = PI4KB (Homo sapiens (Human), UniProt Q9UBF8); conditions: H929 live cell
Method: as §1

MLK3 = MLK3 (Homo sapiens (Human), UniProt Q16584); conditions: H929 live cell
Method: as §1

[3] = range class, read-out: % inhibition

RSK2 domain2, sequence (P51812 whole entry, the tested form may be a part): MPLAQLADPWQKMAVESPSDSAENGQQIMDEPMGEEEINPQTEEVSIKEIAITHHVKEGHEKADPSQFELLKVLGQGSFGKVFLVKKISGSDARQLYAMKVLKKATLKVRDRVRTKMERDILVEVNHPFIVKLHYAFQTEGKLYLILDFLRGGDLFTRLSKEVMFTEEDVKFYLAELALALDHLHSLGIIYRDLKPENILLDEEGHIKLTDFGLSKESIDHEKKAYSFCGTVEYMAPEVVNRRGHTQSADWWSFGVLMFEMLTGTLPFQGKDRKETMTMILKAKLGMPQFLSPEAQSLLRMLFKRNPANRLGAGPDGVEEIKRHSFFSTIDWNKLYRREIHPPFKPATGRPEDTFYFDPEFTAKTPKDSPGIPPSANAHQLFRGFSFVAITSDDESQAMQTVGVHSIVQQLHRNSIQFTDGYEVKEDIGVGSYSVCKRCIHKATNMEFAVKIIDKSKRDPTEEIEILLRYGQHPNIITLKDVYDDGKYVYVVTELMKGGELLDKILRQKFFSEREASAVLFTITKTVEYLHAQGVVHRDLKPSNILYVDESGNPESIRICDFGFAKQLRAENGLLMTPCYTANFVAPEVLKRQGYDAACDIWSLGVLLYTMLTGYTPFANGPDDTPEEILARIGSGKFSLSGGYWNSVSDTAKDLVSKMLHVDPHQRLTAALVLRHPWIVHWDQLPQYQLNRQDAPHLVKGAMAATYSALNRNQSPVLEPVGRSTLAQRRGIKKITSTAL
IKKb, sequence (O14920 whole entry): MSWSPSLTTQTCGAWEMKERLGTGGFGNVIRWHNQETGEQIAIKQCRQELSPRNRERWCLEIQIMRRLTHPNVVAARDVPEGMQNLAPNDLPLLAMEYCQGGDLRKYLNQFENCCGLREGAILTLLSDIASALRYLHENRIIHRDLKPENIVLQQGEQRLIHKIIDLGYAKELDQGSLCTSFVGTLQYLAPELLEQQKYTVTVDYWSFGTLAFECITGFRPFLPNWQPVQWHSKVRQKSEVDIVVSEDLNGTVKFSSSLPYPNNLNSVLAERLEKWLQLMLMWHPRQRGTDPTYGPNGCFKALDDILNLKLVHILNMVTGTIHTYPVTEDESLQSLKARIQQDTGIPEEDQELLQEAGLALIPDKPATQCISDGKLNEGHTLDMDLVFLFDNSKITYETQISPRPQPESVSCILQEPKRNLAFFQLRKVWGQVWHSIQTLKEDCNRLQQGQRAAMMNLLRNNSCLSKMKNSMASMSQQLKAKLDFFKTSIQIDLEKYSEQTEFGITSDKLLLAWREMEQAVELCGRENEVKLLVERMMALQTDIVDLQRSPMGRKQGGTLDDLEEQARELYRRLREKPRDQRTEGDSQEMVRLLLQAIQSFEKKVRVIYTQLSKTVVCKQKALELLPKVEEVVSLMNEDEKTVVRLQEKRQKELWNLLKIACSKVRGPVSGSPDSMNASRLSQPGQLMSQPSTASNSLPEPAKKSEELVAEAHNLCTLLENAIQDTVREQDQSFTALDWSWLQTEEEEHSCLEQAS
ULK1, sequence (O75385 whole entry): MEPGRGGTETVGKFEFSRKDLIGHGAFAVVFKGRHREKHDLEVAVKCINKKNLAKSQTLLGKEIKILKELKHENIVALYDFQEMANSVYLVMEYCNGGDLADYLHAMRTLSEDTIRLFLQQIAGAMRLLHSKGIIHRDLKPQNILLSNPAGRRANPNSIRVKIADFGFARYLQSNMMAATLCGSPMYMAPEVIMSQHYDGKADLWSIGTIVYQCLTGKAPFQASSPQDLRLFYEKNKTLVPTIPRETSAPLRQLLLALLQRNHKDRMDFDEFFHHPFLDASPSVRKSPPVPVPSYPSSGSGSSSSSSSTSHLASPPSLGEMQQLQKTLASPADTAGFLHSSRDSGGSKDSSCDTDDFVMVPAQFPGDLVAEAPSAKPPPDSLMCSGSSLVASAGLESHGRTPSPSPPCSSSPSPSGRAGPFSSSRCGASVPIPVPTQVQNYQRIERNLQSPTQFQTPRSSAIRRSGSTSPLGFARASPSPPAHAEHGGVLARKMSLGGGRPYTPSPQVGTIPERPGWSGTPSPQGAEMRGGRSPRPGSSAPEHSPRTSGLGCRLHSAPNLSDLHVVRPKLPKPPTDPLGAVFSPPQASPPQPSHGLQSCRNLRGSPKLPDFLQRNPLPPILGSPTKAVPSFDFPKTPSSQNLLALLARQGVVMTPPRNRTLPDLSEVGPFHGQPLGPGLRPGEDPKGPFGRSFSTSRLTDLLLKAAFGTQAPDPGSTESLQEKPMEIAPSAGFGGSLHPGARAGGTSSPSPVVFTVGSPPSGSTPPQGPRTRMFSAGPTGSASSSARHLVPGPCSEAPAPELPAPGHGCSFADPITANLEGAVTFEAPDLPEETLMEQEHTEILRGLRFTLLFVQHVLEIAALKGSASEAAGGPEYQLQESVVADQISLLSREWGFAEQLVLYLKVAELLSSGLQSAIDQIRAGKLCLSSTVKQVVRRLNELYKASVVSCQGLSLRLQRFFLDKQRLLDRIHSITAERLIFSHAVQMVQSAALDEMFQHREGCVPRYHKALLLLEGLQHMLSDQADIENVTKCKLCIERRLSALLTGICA
MAP3K2, sequence (Q9Y2U5 whole entry): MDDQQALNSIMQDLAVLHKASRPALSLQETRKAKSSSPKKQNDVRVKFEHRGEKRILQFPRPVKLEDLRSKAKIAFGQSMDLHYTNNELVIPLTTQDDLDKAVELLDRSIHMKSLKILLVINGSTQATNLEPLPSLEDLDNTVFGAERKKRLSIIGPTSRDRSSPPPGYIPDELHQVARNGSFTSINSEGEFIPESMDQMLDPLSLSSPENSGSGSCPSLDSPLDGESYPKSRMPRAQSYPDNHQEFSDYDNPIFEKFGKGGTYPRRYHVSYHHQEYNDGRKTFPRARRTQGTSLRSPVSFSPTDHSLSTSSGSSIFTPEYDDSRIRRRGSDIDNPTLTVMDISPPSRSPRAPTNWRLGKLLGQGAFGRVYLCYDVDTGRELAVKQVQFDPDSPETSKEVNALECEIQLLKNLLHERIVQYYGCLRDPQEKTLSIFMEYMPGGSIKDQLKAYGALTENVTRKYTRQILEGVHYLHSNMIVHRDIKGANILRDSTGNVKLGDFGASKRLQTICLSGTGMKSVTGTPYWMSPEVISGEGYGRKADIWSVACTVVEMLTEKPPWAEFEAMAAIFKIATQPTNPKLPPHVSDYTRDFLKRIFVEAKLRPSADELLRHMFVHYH
NEK1, sequence (Q96PY6 whole entry): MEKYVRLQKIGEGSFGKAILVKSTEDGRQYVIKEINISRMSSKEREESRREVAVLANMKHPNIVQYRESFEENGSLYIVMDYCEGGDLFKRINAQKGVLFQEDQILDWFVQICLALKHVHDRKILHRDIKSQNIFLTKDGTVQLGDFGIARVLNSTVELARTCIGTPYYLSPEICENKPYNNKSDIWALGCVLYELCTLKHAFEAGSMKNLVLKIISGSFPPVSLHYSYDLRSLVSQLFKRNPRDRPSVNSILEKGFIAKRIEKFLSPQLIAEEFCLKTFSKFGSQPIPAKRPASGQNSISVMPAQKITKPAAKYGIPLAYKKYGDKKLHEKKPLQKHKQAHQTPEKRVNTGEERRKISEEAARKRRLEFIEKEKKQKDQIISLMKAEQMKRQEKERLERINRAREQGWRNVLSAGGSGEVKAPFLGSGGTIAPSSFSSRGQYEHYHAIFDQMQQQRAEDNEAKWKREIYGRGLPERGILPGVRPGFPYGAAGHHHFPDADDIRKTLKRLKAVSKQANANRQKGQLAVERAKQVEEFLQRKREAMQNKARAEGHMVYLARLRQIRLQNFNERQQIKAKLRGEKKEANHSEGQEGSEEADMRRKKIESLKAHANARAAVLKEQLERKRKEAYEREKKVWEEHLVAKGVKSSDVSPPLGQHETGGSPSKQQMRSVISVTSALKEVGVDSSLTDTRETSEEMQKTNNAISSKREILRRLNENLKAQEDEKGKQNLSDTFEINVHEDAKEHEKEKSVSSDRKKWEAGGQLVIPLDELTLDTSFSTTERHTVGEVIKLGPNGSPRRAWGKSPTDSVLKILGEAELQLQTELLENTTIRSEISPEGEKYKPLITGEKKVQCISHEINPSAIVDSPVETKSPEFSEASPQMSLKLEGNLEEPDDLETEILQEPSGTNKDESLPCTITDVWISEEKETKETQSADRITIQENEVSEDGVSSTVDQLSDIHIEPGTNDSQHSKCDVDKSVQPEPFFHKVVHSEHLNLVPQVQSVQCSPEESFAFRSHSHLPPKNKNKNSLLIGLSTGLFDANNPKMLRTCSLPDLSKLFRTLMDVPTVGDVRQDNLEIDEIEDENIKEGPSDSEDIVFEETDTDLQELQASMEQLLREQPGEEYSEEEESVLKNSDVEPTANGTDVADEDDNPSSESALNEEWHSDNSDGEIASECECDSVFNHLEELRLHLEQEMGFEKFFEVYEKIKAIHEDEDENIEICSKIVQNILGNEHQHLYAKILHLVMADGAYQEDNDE
ILK, sequence (Q13418 whole entry): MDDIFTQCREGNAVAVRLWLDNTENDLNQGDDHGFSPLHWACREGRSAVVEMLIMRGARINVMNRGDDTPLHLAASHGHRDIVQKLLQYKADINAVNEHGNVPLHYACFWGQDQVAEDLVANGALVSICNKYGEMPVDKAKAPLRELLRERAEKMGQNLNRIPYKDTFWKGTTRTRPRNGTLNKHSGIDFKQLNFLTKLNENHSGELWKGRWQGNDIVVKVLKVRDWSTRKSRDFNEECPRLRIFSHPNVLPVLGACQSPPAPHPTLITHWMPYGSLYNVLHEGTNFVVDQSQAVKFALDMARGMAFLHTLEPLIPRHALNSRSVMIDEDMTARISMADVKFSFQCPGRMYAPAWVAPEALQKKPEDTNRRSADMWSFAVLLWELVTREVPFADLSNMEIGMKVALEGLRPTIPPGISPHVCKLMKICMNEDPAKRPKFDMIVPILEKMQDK

## COc1cc(NS(=O)(=O)C2CC2)ccc1-c1cnc(N)c(-c2ccc3c(c2)CCNC3=O)c1 [Compound I-50, N-(4-(6-amino-5-(1-oxo-1,2,3,4-tetrahydroisoquinolin-6-yl)pyridin-3-yl)-3-methoxyphenyl) cyclopropanesulfonamide]
MAP3K5; [3]
  inhibition at 10 µM: 0%
MAP3K5; read-out: inhibition (10 μM)
  inhibition at 10 µM: 27.5%
IRAK4; [3]
  inhibition at 10 µM: 0%
IRAK4; read-out: inhibition (10 μM)
  inhibition at 10 µM: 19.6%
[1]
  % inhibition: >90%
  inhibition (10 μM): 96.3%
ILK; [3]
  inhibition at 10 µM: 0%
ILK; read-out: inhibition (10 μM)
  inhibition at 10 µM: -18.8%
STLK5; [3]
  inhibition at 10 µM: 0%
STLK5; read-out: inhibition (10 μM)
  inhibition at 10 µM: -22.3%
CaMK1d; [3]
  inhibition at 10 µM: 0%
CaMK1d; read-out: inhibition (10 μM)
  inhibition at 10 µM: 10.6%
JAK1 domain1; [3]
  inhibition at 10 µM: 0%
JAK1 domain1; read-out: inhibition (10 μM)
  inhibition at 10 µM: -19.8%
BRAF; [3]
  inhibition at 10 µM: 0%
BRAF; read-out: inhibition (10 μM)
  inhibition at 10 µM: -35.8%
NEK1; [3]
  inhibition at 10 µM: 0%
NEK1; read-out: inhibition (10 μM)
  inhibition at 10 µM: 16.8%
IKKb; [3]
  inhibition at 10 µM: 0%
IKKb; read-out: inhibition (10 μM)
  inhibition at 10 µM: -26.2%
KHS1; [3]
  inhibition at 10 µM: 75 to 90%
KHS1; read-out: inhibition (10 μM)
  inhibition at 10 µM: 77.8%
CDK2; [3]
  inhibition at 10 µM: 0%
CDK2; read-out: inhibition (10 μM)
  inhibition at 10 µM: 17.3%
PKD2; [3]
  inhibition at 10 µM: 50 to 75%
PKD2; read-out: inhibition (10 μM)
  inhibition at 10 µM: 51.5%
MAP3K2, MAP3K3
  % inhibition: 0.0%
  inhibition (10 μM): 12.0%
MAP3K2; [3]
  inhibition at 10 µM: 0%
MAP3K2; read-out: inhibition (10 μM)
  inhibition at 10 µM: -39.1%
CHK2; [3]
  inhibition at 10 µM: 0%
CHK2; read-out: inhibition (10 μM)
  inhibition at 10 µM: 19.3%
TAO2; [3]
  inhibition at 10 µM: 0%
TAO2; read-out: inhibition (10 μM)
  inhibition at 10 µM: 9%
MARK1, MARK2
  % inhibition: 0.0%
  inhibition (10 μM): −29.5%
ABL, ARG
  % inhibition: 0.0%
  inhibition (10 μM): −53.7%
MAPKAPK2, MAPKAPK3
  % inhibition: 0.0%
  inhibition (10 μM): −34.3%
[2]
  % inhibition: 0.0%
  inhibition (10 μM): 26.8%
KSR1, KSR2
  % inhibition: 0.0%
  inhibition (10 μM): −18.4%
LKB1; [3]
  inhibition at 10 µM: 0%
LKB1; read-out: inhibition (10 μM)
  inhibition at 10 µM: -1.1%
JAK1 domain2; [3]
  inhibition at 10 µM: 0%
JAK1 domain2; read-out: inhibition (10 μM)
  inhibition at 10 µM: -23.3%
RSK2 domain2; [3]
  inhibition at 10 µM: 0%
RSK2 domain2; read-out: inhibition (10 μM)
  inhibition at 10 µM: -1.4%
PIP5K3; [3]
  inhibition at 10 µM: 75 to 90%
PIP5K3; read-out: inhibition (10 μM)
  inhibition at 10 µM: 79.7%
NEK4; [3]
  inhibition at 10 µM: 0%
NEK4; read-out: inhibition (10 μM)
  inhibition at 10 µM: 25.1%
ULK1; [3]
  inhibition at 10 µM: 0%
ULK1; read-out: inhibition (10 μM)
  inhibition at 10 µM: 28.8%
IRE1; [3]
  inhibition at 10 µM: 0%
IRE1; read-out: inhibition (10 μM)
  inhibition at 10 µM: -8.7%
CaMK2g; [3]
  inhibition at 10 µM: 0%
CaMK2g; read-out: inhibition (10 μM)
  inhibition at 10 µM: 15.6%
SLK; [3]
  inhibition at 10 µM: 50 to 75%
SLK; read-out: inhibition (10 μM)
  inhibition at 10 µM: 70.6%
PKN1; [3]
  inhibition at 10 µM: 0%
PKN1; read-out: inhibition (10 μM)
  inhibition at 10 µM: -39.9%
PI4KB; [3]
  inhibition at 10 µM: 0%
PI4KB; read-out: inhibition (10 μM)
  inhibition at 10 µM: 0%
MLK3; [3]
  inhibition at 10 µM: 35 to 40%
MLK3; read-out: inhibition (10 μM)
  inhibition at 10 µM: 40.9%

## Nc1ncc(-c2ccc(NS(=O)(=O)C3CC3)cc2F)cc1-c1ccc2c(c1)CCNC2=O [Compound I-51, N-(4-(6-amino-5-(1-oxo-1,2,3,4-tetrahydroisoquinolin-6-yl)pyridin-3-yl)-3-fluorophenyl) cyclopropanesulfonamide]
MAP3K5; [3]
  inhibition at 10 µM: 0%
MAP3K5; read-out: inhibition (10 μM)
  inhibition at 10 µM: 16.3%
IRAK4; [3]
  inhibition at 10 µM: 0%
IRAK4; read-out: inhibition (10 μM)
  inhibition at 10 µM: 16.4%
[1]
  % inhibition: >90%
  inhibition (10 μM): 97.2%
ILK; [3]
  inhibition at 10 µM: 0%
ILK; read-out: inhibition (10 μM)
  inhibition at 10 µM: -31.3%
STLK5; [3]
  inhibition at 10 µM: 0%
STLK5; read-out: inhibition (10 μM)
  inhibition at 10 µM: -17.1%
CaMK1d; [3]
  inhibition at 10 µM: 0%
CaMK1d; read-out: inhibition (10 μM)
  inhibition at 10 µM: -1.7%
JAK1 domain1; [3]
  inhibition at 10 µM: 0%
JAK1 domain1; read-out: inhibition (10 μM)
  inhibition at 10 µM: -8.2%
BRAF; [3]
  inhibition at 10 µM: 0%
BRAF; read-out: inhibition (10 μM)
  inhibition at 10 µM: -41.8%
NEK1; [3]
  inhibition at 10 µM: 0%
NEK1; read-out: inhibition (10 μM)
  inhibition at 10 µM: 30.2%
IKKb; [3]
  inhibition at 10 µM: 0%
IKKb; read-out: inhibition (10 μM)
  inhibition at 10 µM: -19.5%
KHS1; [3]
  inhibition at 10 µM: 50 to 75%
KHS1; read-out: inhibition (10 μM)
  inhibition at 10 µM: 72.7%
CDK2; [3]
  inhibition at 10 µM: 35 to 40%
CDK2; read-out: inhibition (10 μM)
  inhibition at 10 µM: 35%
PKD2; [3]
  inhibition at 10 µM: 50 to 75%
PKD2; read-out: inhibition (10 μM)
  inhibition at 10 µM: 73.2%
MAP3K2, MAP3K3
  % inhibition: 0.0%
  inhibition (10 μM): 26.7%
MAP3K2; [3]
  inhibition at 10 µM: 0%
MAP3K2; read-out: inhibition (10 μM)
  inhibition at 10 µM: -11.2%
CHK2; [3]
  inhibition at 10 µM: 0%
CHK2; read-out: inhibition (10 μM)
  inhibition at 10 µM: 14.1%
TAO2; [3]
  inhibition at 10 µM: 35 to 40%
TAO2; read-out: inhibition (10 μM)
  inhibition at 10 µM: 40.9%
MARK1, MARK2
  % inhibition: 0.0%
  inhibition (10 μM): 9.3%
ABL, ARG
  % inhibition: 0.0%
  inhibition (10 μM): −3.0%
MAPKAPK2, MAPKAPK3
  % inhibition: 0.0%
  inhibition (10 μM): −65.2%
[2]
  % inhibition: 0.0%
  inhibition (10 μM): 19.2%
KSR1, KSR2
  % inhibition: 0.0%
  inhibition (10 μM): −5.2%
LKB1; [3]
  inhibition at 10 µM: 0%
LKB1; read-out: inhibition (10 μM)
  inhibition at 10 µM: 5.1%
JAK1 domain2; [3]
  inhibition at 10 µM: 0%
JAK1 domain2; read-out: inhibition (10 μM)
  inhibition at 10 µM: -6.4%
RSK2 domain2; [3]
  inhibition at 10 µM: 0%
RSK2 domain2; read-out: inhibition (10 μM)
  inhibition at 10 µM: 9.9%
PIP5K3; [3]
  inhibition at 10 µM: 75 to 90%
PIP5K3; read-out: inhibition (10 μM)
  inhibition at 10 µM: 84.7%
NEK4; [3]
  inhibition at 10 µM: 0%
NEK4; read-out: inhibition (10 μM)
  inhibition at 10 µM: 25.8%
ULK1; [3]
  inhibition at 10 µM: 35 to 40%
ULK1; read-out: inhibition (10 μM)
  inhibition at 10 µM: 40%
IRE1; [3]
  inhibition at 10 µM: 0%
IRE1; read-out: inhibition (10 μM)
  inhibition at 10 µM: -43.1%
CaMK2g; [3]
  inhibition at 10 µM: 0%
CaMK2g; read-out: inhibition (10 μM)
  inhibition at 10 µM: -6.4%
SLK; [3]
  inhibition at 10 µM: 75 to 90%
SLK; read-out: inhibition (10 μM)
  inhibition at 10 µM: 85.6%
PKN1; [3]
  inhibition at 10 µM: 0%
PKN1; read-out: inhibition (10 μM)
  inhibition at 10 µM: -72.1%
PI4KB; [3]
  inhibition at 10 µM: 0%
PI4KB; read-out: inhibition (10 μM)
  inhibition at 10 µM: 13%
MLK3; [3]
  inhibition at 10 µM: 35 to 40%
MLK3; read-out: inhibition (10 μM)
  inhibition at 10 µM: 42.3%
